Calls of active or inactive are those of the source.
Experiments:
[1] = biological target: Beta-2 adrenergic receptor (Homo sapiens, UniProt P07550); assay: ADRB2 activation measured by internalization – cell-based, FAP fluorogen, flow cytometry, cherry pick 1, dose response (AID 588763); type: functional
[2] = NIH-3T3 fibroblast cytotoxicity, dose response, cytotoxicity control, cell-based, fluorescence, Alamar Blue, secondary assay (AID 2327); type: functional;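 further: NIH-3T3 mouse fibroblasts cultured with fluconazole at 8 µg/mL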
[3] = viability of uninfected HEp-2 cells – cell-based, HTS, cytotoxicity control for RSV inhibitor project, dose response (AID 2410); type: functional; details: human respiratory syncytial virus
[4] = fluconazole-exposed Candida albicans growth modulators – fluorescence, retest, confirmation (AID 2467); type: functional, cell-based
Caspase-3 = biological target: T1, Caspase-3 (Homo sapiens, UniProt P42574); type: functional;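 further: Dose-response selectivity test against caspase-3 for candidate inhibitors of sentrin-specific proteases (SENPs)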
T1 sequence (P42574 whole entry): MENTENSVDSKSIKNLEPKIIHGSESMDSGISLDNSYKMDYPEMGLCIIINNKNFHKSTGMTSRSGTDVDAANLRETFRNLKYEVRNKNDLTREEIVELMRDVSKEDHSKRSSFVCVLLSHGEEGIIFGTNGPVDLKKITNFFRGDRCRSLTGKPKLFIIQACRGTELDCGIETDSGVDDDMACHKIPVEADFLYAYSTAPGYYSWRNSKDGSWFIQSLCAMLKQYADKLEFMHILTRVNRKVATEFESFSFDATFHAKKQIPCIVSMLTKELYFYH

[5] = biological target: T2, Sentrin-specific protease 7 (Homo sapiens, UniProt Q9BQF6); type: functional;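 further: Luminescence-based dose-response confirmation of ultra-high-throughput screening hits, measuring inhibition of SENP7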
T2 sequence (Q9BQF6 whole entry): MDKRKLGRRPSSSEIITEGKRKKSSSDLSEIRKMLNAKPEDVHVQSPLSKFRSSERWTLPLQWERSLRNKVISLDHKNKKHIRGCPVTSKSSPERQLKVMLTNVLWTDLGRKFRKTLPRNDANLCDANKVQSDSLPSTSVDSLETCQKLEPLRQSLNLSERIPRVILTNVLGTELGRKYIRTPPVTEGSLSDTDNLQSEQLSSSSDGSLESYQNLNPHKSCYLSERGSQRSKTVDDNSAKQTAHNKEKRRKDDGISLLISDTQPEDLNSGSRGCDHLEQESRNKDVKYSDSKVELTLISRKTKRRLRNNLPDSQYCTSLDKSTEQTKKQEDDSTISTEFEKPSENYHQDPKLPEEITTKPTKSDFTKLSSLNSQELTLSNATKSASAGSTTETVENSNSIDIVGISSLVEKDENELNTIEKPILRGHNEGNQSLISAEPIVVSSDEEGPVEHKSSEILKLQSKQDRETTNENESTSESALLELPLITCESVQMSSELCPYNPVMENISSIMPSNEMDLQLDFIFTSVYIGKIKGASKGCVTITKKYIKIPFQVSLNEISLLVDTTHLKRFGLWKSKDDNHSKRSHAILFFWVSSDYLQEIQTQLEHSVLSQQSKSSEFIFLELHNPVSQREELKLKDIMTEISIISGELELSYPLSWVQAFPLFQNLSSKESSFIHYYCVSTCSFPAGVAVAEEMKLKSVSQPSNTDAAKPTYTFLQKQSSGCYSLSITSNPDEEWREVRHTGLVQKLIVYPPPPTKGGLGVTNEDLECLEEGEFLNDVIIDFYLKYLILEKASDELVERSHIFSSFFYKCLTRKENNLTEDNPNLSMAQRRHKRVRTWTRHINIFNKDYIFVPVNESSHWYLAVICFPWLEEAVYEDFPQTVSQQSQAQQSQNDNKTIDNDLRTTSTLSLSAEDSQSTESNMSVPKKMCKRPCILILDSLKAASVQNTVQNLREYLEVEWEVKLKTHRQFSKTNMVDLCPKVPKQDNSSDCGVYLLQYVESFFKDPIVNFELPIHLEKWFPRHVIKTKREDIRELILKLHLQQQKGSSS

[6] = biological target: T3, Sentrin-specific protease 6 (Homo sapiens, UniProt Q9GZR1); type: functional;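 further: Luminescence-based dose-response confirmatory assay of SENP6 inhibition, following up an ultra-high-throughput screen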
T3 sequence (Q9GZR1 whole entry): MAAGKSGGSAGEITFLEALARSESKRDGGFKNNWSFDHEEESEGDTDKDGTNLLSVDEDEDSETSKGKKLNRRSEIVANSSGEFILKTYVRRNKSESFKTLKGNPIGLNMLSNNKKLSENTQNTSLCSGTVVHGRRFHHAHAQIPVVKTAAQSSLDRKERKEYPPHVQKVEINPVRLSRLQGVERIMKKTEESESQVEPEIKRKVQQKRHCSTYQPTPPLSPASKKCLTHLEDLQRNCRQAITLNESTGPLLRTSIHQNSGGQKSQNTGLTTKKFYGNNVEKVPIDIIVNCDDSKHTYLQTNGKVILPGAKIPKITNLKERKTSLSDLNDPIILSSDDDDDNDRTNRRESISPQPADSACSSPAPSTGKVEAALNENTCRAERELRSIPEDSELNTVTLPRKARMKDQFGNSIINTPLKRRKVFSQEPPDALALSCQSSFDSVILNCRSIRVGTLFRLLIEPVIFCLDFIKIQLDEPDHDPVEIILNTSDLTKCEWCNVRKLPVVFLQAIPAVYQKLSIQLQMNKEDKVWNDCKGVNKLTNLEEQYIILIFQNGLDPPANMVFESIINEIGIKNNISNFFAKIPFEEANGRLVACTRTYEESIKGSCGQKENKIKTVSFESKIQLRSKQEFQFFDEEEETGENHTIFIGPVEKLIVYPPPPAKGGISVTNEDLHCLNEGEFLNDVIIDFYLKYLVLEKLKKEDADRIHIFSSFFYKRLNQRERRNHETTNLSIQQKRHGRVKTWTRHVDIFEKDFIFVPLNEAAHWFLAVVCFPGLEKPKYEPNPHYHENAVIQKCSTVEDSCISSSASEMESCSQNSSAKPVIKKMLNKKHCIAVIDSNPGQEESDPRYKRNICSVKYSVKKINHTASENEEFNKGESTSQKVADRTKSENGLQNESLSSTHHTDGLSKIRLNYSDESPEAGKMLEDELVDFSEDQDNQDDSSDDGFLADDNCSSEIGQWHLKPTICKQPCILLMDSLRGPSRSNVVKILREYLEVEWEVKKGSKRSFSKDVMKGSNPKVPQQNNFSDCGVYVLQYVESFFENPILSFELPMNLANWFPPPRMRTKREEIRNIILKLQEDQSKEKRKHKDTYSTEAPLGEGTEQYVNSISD

[7] = biological target: FAD-linked sulfhydryl oxidase ALR (Homo sapiens, UniProt P55789); assay: ALR-catalysed DTT oxidation blockers – biochemical, H2O2 detection, luminescence, cherry-pick, dose response (AID 493248)
[8] = biological target: T4, Sentrin-specific protease 8 (Homo sapiens, UniProt Q96LD8); type: functional;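 further: luminescence read-out of SENP8 inhibition, dose-response confirmation following an ultra-high-throughput screen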
T4 sequence (Q96LD8 whole entry): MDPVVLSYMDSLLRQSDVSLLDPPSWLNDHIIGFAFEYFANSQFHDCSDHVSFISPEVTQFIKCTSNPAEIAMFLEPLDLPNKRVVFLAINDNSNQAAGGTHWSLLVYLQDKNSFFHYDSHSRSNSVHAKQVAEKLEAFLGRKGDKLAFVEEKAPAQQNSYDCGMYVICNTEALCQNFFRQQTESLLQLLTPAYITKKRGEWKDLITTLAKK

HeLa = assay: ATP-based viability loss in HeLa cells – cell-based, CellTiter-Glo luminescence, cherry-pick samples, cytotoxicity control for MITF activator project, dose response (AID 540259); type: functional; details: Homo sapiens
SUMO-activating enzyme [9] = biological target: T5, SUMO-activating enzyme (Homo sapiens, UniProt Q9UBT2); assay: blockers of UBC9-mediated SUMO conjugation – biochemical, AlphaScreen, SUMOylation inhibitor project, confirmation (AID 2018); type: functional
SUMO-activating enzyme [10] = biological target: T5, SUMO-activating enzyme; assay: blockers of SAE1/SAE2–UBC9 SUMO transfer – biochemical, HTRF, uHTS, primary screen (AID 2006); type: protein-complex assay
[11] = biological target: Induced myeloid leukemia cell differentiation protein Mcl-1 (Homo sapiens, UniProt Q07820); type: functional
Cysteine protease ATG4B = biological target: T6, Cysteine protease ATG4B (Homo sapiens, UniProt Q9Y4P1); type: functional;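 further: Fluorescence-based dose-response confirmation assay measuring inhibition of ATG4B activity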
T6 sequence (Q9Y4P1 whole entry): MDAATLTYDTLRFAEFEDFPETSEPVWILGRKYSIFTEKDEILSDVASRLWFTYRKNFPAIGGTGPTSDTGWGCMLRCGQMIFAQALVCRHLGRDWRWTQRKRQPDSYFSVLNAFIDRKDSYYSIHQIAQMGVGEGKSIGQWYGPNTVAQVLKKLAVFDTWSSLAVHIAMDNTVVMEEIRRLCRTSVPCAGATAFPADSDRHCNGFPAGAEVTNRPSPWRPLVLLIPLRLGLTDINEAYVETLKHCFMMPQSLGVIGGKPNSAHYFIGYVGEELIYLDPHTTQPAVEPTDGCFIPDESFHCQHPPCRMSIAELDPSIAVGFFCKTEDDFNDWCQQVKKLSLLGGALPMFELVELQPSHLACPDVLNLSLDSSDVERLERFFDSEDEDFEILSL

Phospholipase A2 = Phospholipase A2 (Homo sapiens, UniProt P04054); type: functional;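 further: confirmatory dose-response counterscreen on phospholipase A2, testing hits that came from an ultra-high-throughput screen for ATG4B inhibitors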
[12] = biological target: DNA (cytosine-5)-methyltransferase 1 (Homo sapiens, UniProt P26358); assay: inhibition of DNA methylation by DNMT1 – biochemical, fluorescent molecular beacon, confirmation (AID 602386); type: functional
Caspase-6 = biological target: T7, Caspase-6 (Homo sapiens, UniProt P55212); assay: inhibition of CASP6 peptide cleavage – biochemical, VEID-R110 fluorescence, cherry-pick, dose response (AID 720632)
T7 sequence (P55212 whole entry): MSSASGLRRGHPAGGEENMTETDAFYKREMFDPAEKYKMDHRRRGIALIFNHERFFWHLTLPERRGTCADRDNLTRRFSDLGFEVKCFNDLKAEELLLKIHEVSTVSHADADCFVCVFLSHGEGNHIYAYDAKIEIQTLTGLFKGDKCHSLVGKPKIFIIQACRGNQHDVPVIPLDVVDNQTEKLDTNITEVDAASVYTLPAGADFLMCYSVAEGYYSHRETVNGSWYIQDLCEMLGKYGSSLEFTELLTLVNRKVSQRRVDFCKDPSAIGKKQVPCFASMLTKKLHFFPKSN

T5 sequence (Q9UBE0 whole entry): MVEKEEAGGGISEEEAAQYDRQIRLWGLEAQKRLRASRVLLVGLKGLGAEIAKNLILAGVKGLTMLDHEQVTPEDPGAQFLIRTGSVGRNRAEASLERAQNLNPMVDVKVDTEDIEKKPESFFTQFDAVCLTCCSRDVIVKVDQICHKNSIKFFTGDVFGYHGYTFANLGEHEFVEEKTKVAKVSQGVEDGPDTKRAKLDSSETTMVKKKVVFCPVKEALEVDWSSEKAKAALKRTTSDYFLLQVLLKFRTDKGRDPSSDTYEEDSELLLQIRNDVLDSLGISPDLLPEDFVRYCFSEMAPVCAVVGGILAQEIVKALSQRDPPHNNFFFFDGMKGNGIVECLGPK
T5 sequence (Q9UBT2 whole entry): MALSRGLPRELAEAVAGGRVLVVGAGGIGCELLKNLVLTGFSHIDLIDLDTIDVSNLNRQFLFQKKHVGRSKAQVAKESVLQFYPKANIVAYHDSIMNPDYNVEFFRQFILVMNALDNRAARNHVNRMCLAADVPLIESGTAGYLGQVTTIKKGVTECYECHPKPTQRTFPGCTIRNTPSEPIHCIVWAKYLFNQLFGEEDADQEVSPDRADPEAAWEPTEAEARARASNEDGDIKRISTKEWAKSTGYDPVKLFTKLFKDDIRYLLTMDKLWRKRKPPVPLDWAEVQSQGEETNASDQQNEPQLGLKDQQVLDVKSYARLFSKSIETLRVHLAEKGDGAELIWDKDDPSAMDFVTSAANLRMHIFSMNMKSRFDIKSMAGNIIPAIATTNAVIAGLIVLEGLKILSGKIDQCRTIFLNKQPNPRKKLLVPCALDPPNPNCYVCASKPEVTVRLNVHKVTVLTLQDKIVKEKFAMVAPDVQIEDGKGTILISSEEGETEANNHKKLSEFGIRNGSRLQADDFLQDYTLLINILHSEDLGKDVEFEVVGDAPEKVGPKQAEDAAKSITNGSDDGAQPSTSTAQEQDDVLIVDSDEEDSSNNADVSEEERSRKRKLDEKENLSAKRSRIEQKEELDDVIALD
Phospholipase A2, sequence (P04054 whole entry): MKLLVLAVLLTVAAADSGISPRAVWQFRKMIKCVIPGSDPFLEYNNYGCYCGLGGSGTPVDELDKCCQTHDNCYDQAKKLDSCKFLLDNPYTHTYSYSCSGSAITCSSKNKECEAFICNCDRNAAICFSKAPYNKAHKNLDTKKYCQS
FAD-linked sulfhydryl oxidase ALR, sequence (P55789 whole entry): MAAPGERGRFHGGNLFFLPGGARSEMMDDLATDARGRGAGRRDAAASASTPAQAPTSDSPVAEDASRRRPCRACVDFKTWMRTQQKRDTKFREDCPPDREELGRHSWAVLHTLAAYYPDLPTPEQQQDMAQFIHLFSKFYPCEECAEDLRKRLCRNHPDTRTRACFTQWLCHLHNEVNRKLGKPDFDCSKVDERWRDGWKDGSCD
DNA (cytosine-5)-methyltransferase 1, sequence (P26358 whole entry): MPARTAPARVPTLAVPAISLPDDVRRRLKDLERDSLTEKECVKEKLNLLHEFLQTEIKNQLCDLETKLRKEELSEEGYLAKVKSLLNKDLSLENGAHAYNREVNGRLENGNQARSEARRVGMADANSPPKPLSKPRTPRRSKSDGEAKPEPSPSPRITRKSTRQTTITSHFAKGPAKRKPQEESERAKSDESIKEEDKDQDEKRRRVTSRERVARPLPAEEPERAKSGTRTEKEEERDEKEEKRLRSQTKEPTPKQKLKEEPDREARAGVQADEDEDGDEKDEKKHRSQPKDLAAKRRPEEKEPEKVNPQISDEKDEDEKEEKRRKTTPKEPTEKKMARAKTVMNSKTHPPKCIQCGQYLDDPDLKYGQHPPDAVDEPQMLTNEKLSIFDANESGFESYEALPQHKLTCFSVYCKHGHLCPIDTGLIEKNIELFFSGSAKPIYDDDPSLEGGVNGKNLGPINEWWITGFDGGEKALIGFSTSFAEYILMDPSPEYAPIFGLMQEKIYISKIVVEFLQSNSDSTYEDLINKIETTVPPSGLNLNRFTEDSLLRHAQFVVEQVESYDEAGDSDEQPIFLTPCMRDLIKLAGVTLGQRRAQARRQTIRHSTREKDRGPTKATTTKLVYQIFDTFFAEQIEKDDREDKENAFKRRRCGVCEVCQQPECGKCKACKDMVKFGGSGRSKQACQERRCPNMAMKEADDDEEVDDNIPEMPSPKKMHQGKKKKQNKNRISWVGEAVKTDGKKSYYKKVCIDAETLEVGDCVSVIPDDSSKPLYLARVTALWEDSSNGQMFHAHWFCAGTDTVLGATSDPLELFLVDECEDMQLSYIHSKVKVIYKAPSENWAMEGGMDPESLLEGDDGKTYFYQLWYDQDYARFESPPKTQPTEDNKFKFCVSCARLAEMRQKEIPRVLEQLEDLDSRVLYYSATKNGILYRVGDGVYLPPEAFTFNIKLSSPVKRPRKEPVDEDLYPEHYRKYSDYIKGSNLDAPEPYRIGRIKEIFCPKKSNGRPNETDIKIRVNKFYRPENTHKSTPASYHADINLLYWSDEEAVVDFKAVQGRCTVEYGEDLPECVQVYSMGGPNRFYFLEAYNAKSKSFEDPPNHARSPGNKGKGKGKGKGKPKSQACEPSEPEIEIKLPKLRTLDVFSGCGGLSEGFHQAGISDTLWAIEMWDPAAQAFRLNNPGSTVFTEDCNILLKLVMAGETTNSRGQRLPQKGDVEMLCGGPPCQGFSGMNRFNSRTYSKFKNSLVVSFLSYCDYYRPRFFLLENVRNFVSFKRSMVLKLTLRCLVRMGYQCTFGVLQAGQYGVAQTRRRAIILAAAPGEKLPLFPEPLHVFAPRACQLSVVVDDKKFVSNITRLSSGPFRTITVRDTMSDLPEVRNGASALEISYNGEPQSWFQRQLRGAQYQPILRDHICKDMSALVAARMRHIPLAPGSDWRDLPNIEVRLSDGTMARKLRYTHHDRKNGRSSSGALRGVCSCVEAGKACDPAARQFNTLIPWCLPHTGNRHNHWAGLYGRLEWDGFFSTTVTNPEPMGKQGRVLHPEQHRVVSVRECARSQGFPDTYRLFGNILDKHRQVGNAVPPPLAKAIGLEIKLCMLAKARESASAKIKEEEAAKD
Induced myeloid leukemia cell differentiation protein Mcl-1, sequence (Q07820 whole entry): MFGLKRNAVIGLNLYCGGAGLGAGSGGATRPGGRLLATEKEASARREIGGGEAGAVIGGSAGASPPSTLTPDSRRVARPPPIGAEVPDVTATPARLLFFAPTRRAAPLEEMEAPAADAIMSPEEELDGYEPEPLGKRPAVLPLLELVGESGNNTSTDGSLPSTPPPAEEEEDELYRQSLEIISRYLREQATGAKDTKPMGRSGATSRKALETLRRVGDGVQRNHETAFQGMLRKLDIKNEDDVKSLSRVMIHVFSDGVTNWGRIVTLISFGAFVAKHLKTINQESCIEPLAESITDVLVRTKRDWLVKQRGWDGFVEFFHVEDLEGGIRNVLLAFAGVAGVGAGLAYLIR
Beta-2 adrenergic receptor, sequence (P07550 whole entry): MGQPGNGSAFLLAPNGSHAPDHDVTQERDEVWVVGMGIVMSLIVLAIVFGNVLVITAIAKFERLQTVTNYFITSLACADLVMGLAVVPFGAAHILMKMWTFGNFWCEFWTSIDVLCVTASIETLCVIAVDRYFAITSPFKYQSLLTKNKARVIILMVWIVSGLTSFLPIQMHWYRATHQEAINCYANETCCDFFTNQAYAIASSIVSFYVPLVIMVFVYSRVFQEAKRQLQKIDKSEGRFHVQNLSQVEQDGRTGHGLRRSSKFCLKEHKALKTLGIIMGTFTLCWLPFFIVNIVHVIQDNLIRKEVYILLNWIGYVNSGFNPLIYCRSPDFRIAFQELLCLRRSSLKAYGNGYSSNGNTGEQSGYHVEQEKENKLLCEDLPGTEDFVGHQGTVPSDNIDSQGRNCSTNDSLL

Cc1ccc(CS(=O)(=O)c2nc3c(c(N(C)C)n2)CCCC3)cc1
active: EC50 [1] 0.0813 µM

CC(=O)Nc1cccc(-c2csc(Nc3ccc(C)cn3)n2)c1
active: EC50 [2] 25.8 µM | CC50 [3] > 50 µM | EC50 [4] 4.04 µM | IC50 (Caspase-3) 39.7 µM | IC50 [5] 4.13 µM | IC50 [6] 12.7 µM | AC50 [7] 0.169 µM | IC50 [8] 17.5 µM | AC50 (HeLa) 40 µM

CN(c1ccccc1)c1ccc(/C=C(\CCC(=O)O)c2nc3ccccc3s2)cc1[N+](=O)[O-]
active: IC50 (SUMO-activating enzyme [9]) 1.65 µM | IC50 (SUMO-activating enzyme [10]) 16.8 µM | IC50 [11] 2.27 µM | IC50 (Cysteine protease ATG4B) 4.31 µM | IC50 (Phospholipase A2) 5.31 µM | IC50 [12] 5.34 µM | AC50 (Caspase-6) 24.2 µM

Cc1nc2c(C(=O)NCc3ccccc3Cl)cnn2c(O)c1Cl
active: IC50 (Cysteine protease ATG4B) 11 µM | IC50 (Phospholipase A2) 12.6 µM
